Reference: patent US6818663B2, “Diaminothiazoles” (Hoffmann-La Roches, priority 2002, dated 2004)

Columns and labels:
Format in all cases: biochemical
[1] = target: human cyclin D1-CDK4 (Homo sapiens, UniProt P11802); test: FlashPlate kinase assay, cyclin D1-CDK4, Rb substrate; conditions: recombinant cyclin D1-CDK4, Rb phosphorylation, 1 μM ATP
Description: (§1) To determine inhibition of Cdk4, Cdk2 and Cdk1 activity, kinase assays were conducted using FlashPlate™ assays (NEN™-Life Science Products). FlashPlate assays were performed using recombinant human cyclin B-CDK1, human cyclin E-CDK2 or human cyclin D1-CDK4 complexes. GST-cyclinE (GST-cycE), CDK2, GST-cyclinB (GST-cycB), CDK1, GST-CDK4 and cyclin D1 (cycD1) cDNA clones in baculovirus vectors were provided by Dr. W. Harper at the Baylor College of Medicine, Houston, Tex. Proteins were co-expressed in High Five™ insect cells and the complex was purified on glutathione Sepharose resin (Pharmacia, Piscataway, N.J.) as previously described (Harper, J. W. et al. Cell 1993, 75, 805-816). A 6×-Histidine tagged truncated form of retinoblastoma (Rb) protein (amino acid 386-928) was used as the substrate for the cycD1-CDK4, cycB-CDK1 and the cycE-CDK2 assays (the expression plasmid was provided by Dr. Veronica Sullivan, Department of Molecular Virology, Roche Research Centre, Welwyn Garden City, United Kingdom). The Rb protein is a natural substrate for phosphorylation by CDK4, CDK2 and CDK1 (see Herwig and Strauss Eur. J. Biochem. Vol. 246 (1997) pp. 581-601 and the references cited therein).
(§2) The expression of the 62 Kd protein was under the control of an IPTG inducible promoter in an M15 E. coli strain. Cells were lysed by sonication and purification was carried out by binding lysates at pH 8.0 to a Ni-chelated agarose column pretreated with 1 mM imidazole. The resin was then washed several times with incrementally decreasing pH buffers to pH 6.0, and eluted with 500 mM imidazole. Eluted protein was dialysed against 20 mM HEPES pH 7.5, 30% glycerol, 200 mM NaCl, and 1 mM DTT. Purified Rb fusion protein stocks were quantitated for protein concentration, aliquoted, and stored at −70° C.
(§3) For all three kinase assays reported herein, 96-well FlashPlates were coated with Rb protein at 10 μg/ml, using 100 μl per well. Plates were incubated at 4° C. overnight or at room temperature for 3 hours on a shaker. To control for nonspecific phosphorylation, one row of wells was coated with 100 μl/well coating buffer (20 mM HEPES, 0.2 M NaCl). Plates were then washed twice with wash buffer (0.01% Tween 20 in phosphate-buffered saline). Compounds to be tested (“test compounds”) were added to the wells at 5×final concentration. Reactions were initiated by immediate addition of 40 μl reaction mix (25 mM HEPES, 20 mM MgCl2, 0.002% Tween 20, 2 mM DTT, 1 μM ATP, 4 nM ^33P-ATP) and a sufficient amount of enzyme to give counts that were at least 10-fold above background. Plates were incubated at room temperature on a shaker for 30 minutes. Plates were washed four times with the wash buffer, sealed, and counted on the TopCount scintillation counter (Packard Instrument Co., Downers Grove, Ill.]. The percent inhibition of Rb phosphorylation, which is a measure of the inhibition of CDK activity, was determined according to the following formula: [formula]
(§4) where “test compound” refers to the average counts per minute of the test duplicates, “nonspecific” refers to the average counts per minute when no CyclinD/Cdk4, etc., was added, and “total” refers to the average counts per minute when no compound was added. The IC50 value is the concentration of test compound that reduces by 50% the protein-kinase induced incorporation of the radiolabel under the test conditions described.

[2] = target: human cyclin E-CDK2 (Homo sapiens, UniProt P24941); test: FlashPlate kinase assay, cyclin E-CDK2, Rb substrate; conditions: recombinant cyclin E-CDK2, Rb phosphorylation, 1 μM ATP
Description: as §1, §2, §3, §4

[3] = target: human cyclin B-CDK1 (Homo sapiens, UniProt P06493); test: FlashPlate kinase assay, cyclin B-CDK1, Rb substrate; conditions: recombinant cyclin B-CDK1, Rb phosphorylation, 1 μM ATP
Chain of human cyclin B-CDK1 (P06493 whole entry): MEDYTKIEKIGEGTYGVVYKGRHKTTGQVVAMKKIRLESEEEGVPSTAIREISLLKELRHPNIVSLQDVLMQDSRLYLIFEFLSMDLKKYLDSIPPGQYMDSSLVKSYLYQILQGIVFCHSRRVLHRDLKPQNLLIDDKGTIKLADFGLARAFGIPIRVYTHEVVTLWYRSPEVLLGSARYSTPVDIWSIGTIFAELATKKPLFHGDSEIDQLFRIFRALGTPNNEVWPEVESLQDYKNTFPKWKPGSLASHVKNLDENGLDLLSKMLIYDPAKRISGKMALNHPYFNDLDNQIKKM
Chain of human cyclin B-CDK1 (P14635 whole entry partner): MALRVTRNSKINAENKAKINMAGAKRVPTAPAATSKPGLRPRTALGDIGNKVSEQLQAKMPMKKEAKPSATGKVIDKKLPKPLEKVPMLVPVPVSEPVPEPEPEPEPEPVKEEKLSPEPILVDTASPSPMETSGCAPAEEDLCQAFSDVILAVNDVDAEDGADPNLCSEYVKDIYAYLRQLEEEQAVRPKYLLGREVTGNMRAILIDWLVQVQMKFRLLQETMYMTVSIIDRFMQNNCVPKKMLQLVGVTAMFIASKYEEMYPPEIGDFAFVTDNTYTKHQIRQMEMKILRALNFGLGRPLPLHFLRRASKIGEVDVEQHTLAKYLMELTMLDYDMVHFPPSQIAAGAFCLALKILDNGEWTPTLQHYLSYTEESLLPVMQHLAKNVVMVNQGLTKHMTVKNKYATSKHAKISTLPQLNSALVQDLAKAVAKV
Description: as §1, §2, §3, §4

Chain of human cyclin D1-CDK4 (P11802 whole entry): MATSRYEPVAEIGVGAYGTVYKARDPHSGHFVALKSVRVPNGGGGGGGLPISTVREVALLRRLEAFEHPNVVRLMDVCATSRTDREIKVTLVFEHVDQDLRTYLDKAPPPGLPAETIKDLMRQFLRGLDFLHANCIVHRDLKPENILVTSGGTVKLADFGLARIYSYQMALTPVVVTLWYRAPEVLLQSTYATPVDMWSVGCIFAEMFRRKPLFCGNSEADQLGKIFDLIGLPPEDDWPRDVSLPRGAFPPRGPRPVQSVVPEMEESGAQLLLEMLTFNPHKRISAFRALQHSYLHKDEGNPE
Chain of human cyclin D1-CDK4 (P24385 whole entry partner): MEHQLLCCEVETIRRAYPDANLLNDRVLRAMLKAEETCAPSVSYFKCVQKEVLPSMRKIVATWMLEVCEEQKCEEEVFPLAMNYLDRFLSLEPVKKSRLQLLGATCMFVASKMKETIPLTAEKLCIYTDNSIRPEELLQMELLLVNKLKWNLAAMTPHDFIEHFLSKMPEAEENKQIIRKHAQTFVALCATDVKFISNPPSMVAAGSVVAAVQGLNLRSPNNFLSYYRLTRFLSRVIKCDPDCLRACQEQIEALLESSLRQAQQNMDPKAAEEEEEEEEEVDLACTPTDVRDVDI

IC50 [1] [nM]	IC50 [2] [nM]	IC50 [3] [nM]	Structure (SMILES)
38	1170	440	Nc1nc(Nc2ccc(OC[C@@H]3CCCN3)cc2)sc1C(=O)c1cccc(F)c1 [Example 3, [4-Amino-2-[4-(pyrrolidin-2-ylmethoxy)-phenylamino]-thiazol-5-yl]-(3-fluoro-phenyl)-methanone]
91	3020	2360	CCNCCOc1ccc(Nc2nc(N)c(C(=O)c3ccc4c(c3)CCO4)s2)cc1 [Example 143, [4-Amino-2-[4-(2-ethylamino-ethoxy)-phenylamino]-thiazol-5-yl]-(2,3-dihydro-benzofuran-5-yl)-methanone]
63	5600	434	CN(C)CCOc1ccc(Nc2nc(N)c(C(=O)c3ccc4c(c3)OCO4)s2)cc1 [Example 59, [4-Amino-2-[4-(2-dimethylamino-ethoxy)-phenylamino]-thiazol-5-yl]-benzo[1,3]dioxol-5-yl-methanone]
70	–	–	CCN(CC)CCOc1ccc(Nc2nc(N)c(C(=O)c3ccc4c(c3)C(C)CO4)s2)cc1 (stereo not drawn) [Example 139, [4-Amino-2-[4-(2-diethylamino-ethoxy)-phenylamino]-thiazol-5-yl]-(3-methyl-2,3-dihydro-benzofuran-5-yl)-methanone]
97	1640	977	CCN1CCC(Oc2ccc(Nc3nc(N)c(C(=O)c4ccc(C)c(F)c4)s3)cc2)C1 (stereo not drawn) [Example 86, [4-Amino-2-[4-(1-ethyl-pyrrolidin-3-yloxy)-phenylamino]-thiazol-5-yl]-(3-fluoro-4-methyl-phenyl)-methanone]
86	2990	1560	Cc1cccc(C(=O)c2sc(Nc3ccc(OC[C@@H]4CCCN4C)cc3)nc2N)c1 [Example 111, (S)-[4-Amino-2-[4-(1-methyl-pyrrolidin-2-ylmethoxy)-phenylamino]-thiazol-5-yl]-m-tolyl-methanone]
100	–	6430	CCN(CC)CCOc1ccc(Nc2nc(N)c(C(=O)c3ccc4c(c3)CCO4)s2)cc1 [Example 142, [4-Amino-2-[4-(2-diethylamino-ethoxy)-phenylamino]-thiazol-5-yl]-(2,3-dihydro-benzofuran-5-yl)-methanone]
85	3160	1550	COc1ccc(C(=O)c2sc(Nc3ccc(OCCN4CCCC4)cc3)nc2N)cc1[N+](=O)[O-] [Example 48, [4-Amino-2-[4-(2-pyrrolidin-1-yl-ethoxy)-phenylamino]-thiazol-5-yl]-(4-methoxy-3-nitro-phenyl)-methanone]
73	1080	196	Nc1nc(Nc2ccc(OCCN3CCOCC3)cc2)sc1C(=O)c1cccc(F)c1 [Example 47, [4-Amino-2-[4-(2-morpholin-4-yl-ethoxy)-phenylamino]-thiazol-5-yl]-(3-fluoro-phenyl)-methanone]
17	272	344	CCCc1cc(C(=O)c2sc(Nc3ccc(OCCN(C)C)cc3)nc2N)ccc1O [Example 106, [4-Amino-2-[4-(2-dimethylamino-ethoxy)-phenylamino]-thiazol-5-yl-](4-hydroxy-3-propyl-phenyl)-methanone; Compound With Acetic Acid]
43	130	228	CCCc1cc(C(=O)c2sc(Nc3ccc(OC4CCNC4)cc3)nc2N)ccc1O (stereo not drawn) [Example 90, [4-Amino-2-[4-(pyrrolidin-3-yloxy)-phenylamino]-thiazol-5-yl]-(4-hydroxy-3-propyl-phenyl)-methanone; Compound With Acetic Acid]
85	3200	610	Nc1nc(Nc2ccc(OCCN3CCOCC3)cc2)sc1C(=O)c1ccc2c(c1)OCCO2 [Example 55, [4-Amino-2-[4-(2-morpholin-4-yl-ethoxy)-phenylamino]-thiazol-5-yl]-(2,3-dihydro-benzo[1,4]dioxin-6-yl)-methanone]
96	3740	1720	COc1ccc(C(=O)c2sc(Nc3ccc(OC4CCCNC4)cc3)nc2N)cc1F (stereo not drawn) [Example 97, [4-Amino-2-[4-(piperidin-3-yloxy)-phenylamino]-thiazol-5-yl]-(3-fluoro-4-methoxy-phenyl)-methanone]
97	1730	578	COc1ccc(C(=O)c2sc(Nc3ccc(OCCCN)cc3)nc2N)cc1F [Example 147, [4-Amino-2-[4-(3-amino-propoxy)-phenylamino]-thiazol-5-yl]-(3-fluoro-4-methoxy-phenyl)-methanone]
67	1910	519	CCNCCCOc1ccc(Nc2nc(N)c(C(=O)c3ccc(OC)c(F)c3)s2)cc1 [Example 148, [4-Amino-2-[4-(3-ethylamino-propoxy)-phenylamino]-thiazol-5-yl]-(3-fluoro-4-methoxy-phenyl)methanone]
101	5990	1170	Cc1ccc(C(=O)c2sc(Nc3ccc(OCCN(C)C)cc3)nc2N)cc1F [Example 73, [4-Amino-2-[4-(2-dimethylamino-ethoxy)-phenylamino]-thiazol-5-yl]-(3-fluoro-4-methyl-phenyl)-methanone]
79	1700	847	CN(C)CCOc1ccc(Nc2nc(N)c(C(=O)c3cccc(C#N)c3)s2)cc1 [Example 60, 3-[4-Amino-2-[4-(2-dimethylamino-ethoxy)-phenylamino]-thiazole-5-carbonyl]-benzonitrile]
38	158	174	CCCc1cc(C(=O)c2sc(Nc3ccc(OC4CCCNC4)cc3)nc2N)ccc1O (stereo not drawn) [Example 99, [4-Amino-2-[4-(piperidin-3-yloxy)-phenylamino]-thiazol-5-yl]-(4-hydroxy-3-propyl-phenyl)-methanone]
29	3020	155	Nc1nc(Nc2ccc(OCCN3CCOCC3)cc2)sc1C(=O)c1ccc2c(c1)OCO2 [Example 56, [4-Amino-2-[4-(2-morpholin-4-yl-ethoxy)-phenylamino]-thiazol-5-yl]-benzo[1,3]dioxol-5-yl-methanone]
67	817	471	Cc1cccc(C(=O)c2sc(Nc3ccc(OC4CCNC4)cc3)nc2N)c1 (stereo not drawn) [Example 91, [4-Amino-2-[4-(pyrrolidin-3-yloxy)-phenylamino]-thiazol-5-yl]-m-tolyl-methanone; Compound With Acetic Acid]
97	4240	578	Cc1ccc(C(=O)c2sc(Nc3ccc(OCC(C)(C)N(C)C)cc3)nc2N)cc1F [Example 75, [4-Amino-2-[4-(2-dimethylamino-2-methyl-propoxy)-phenylamino]-thiazol-5-yl]-(3-fluoro-4-methyl-phenyl)-methanone]
88	4300	2390	COc1ccc(C(=O)c2sc(Nc3ccc(OCCN(C)C)cc3)nc2N)cc1[N+](=O)[O-] [Example 49, [4-Amino-2-[4-(2-dimethylamino-ethoxy)-phenylamino]-thiazol-5-yl]-(4-methoxy-3-nitro-phenyl)-methanone]
